Test results reported in ChEMBL document CHEMBL6092219, “Structure-Based Design of Covalent SARS-CoV-2 Papain-like Protease Inhibitors” (J Med Chem, 2024).

Tests used:
SARS-CoV-2 [1] = experiment: Antiviral activity against nirmatrelvir-resistant SARS-CoV-2 harboring rL50F/E166A/L167F mutant infected in human Caco-2 cells expressing hTMPRSS/hACE2 incubated for 48 hrs in presence of CP-100356 by crystal violet staining based analysis; type: functional, organism-based, Severe acute respiratory syndrome coronavirus 2
SARS-CoV-2 [2] = experiment: Selectivity ratio of EC50 for nirmatrelvir-resistant SARS-CoV-2 harboring rL50F/E166A/L167F mutant infected in human Caco-2 cells expressing hTMPRSS/hACE2 to EC50 for wild-type SARS-CoV-2 WA1 infected in human Caco-2 cells expressing hTMPRSS/hACE2; type: functional

Structure (SMILES): CC(C)(C)[C@H](NC(=O)C(F)(F)F)C(=O)N1C[C@H]2[C@@H]([C@H]1C(=O)N[C@H](C#N)C[C@@H]1CCNC1=O)C2(C)C
- EC50 (SARS-CoV-2 [1]): 0.501 µM
- Ratio EC50 (SARS-CoV-2 [2]): 14.8
